Data reported in the supplement of paper PMC7224384.

Legend:
[1] = system: MDA-MB-453; test: drug sensitivity score (DSS), single agent (DSS (weighted AUC score)); higher = more sensitive (stronger viability decrease); extreme values may be limits of the assay; conditions: BLU9931 0 nM; 72 h
Procedure, shortened: (§1)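 Compounds from the FIMM Oncology set were predispensed in singlicate at five 10-fold dilutions (10,000-fold range) on 384-well plates. Each well then received 2000 MDA-MB-453 cells in medium with or without an FGFR4 inhibitor (100 nM final) and was kept at 37 °C, 5% CO2. Cellular ATP was read with CellTiterGlo 2.0 after 72 h and normalised per plate to percent viability from control wells. The drug sensitivity score is a weighted area under a four-parameter logistic fit.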

[2] = system: MDA-MB-453; test: drug sensitivity score (DSS), in combination with BLU9931 (DSS (weighted AUC score)); higher = more sensitive (stronger viability decrease); extreme values may be limits of the assay; conditions: BLU9931 100 nM; 72 h
Procedure, shortened: as §1

Compound | drug sensitivity score [1] | drug sensitivity score [2]
CS(=O)(=O)c1ccc(C(=O)Nc2ccc(Cl)c(-c3ccccn3)c2)c(Cl)c1 [Vismodegib] | 0 | 0
COc1cc(Nc2c(C#N)cnc3cc(OCCCN4CCN(C)CC4)c(OC)cc23)c(Cl)cc1Cl [Bosutinib] | 5 | 4.6
Cc1cnc(-c2ccccc2C(C)C)nc1NCc1ccc(-n2ccnn2)cc1 [ML323] | 0.4 | 0
CNC(=O)[C@@H](NC(=O)[C@H](CC(C)C)[C@H](O)C(=O)NO)C(C)(C)C [Marimastat] | 1.1 | 0.8
Nc1nc(Nc2ccc3c(c2)CC[C@@H](N2CCCC2)CC3)nn1-c1cc2c(nn1)-c1ccccc1CCC2 [BGB324] | 3.2 | 0.2
C=CC(=O)Nc1cccc(Oc2nc(Nc3ccc(N4CCN(C)CC4)cc3)nc3ccsc23)c1 [Olmutinib] | 0.7 | 0.7
COc1nc(N)nc2c1ncn2[C@@H]1O[C@H](CO)[C@@H](O)[C@@H]1O [Nelarabine] | 1.3 | 1.5
CNS(=O)(=O)Nc1nccc(Cc2c(C)c3ccc(Oc4ncccn4)cc3oc2=O)c1F | 0.5 | 0.2
COc1cc(OC)c(/C=C/S(=O)(=O)Cc2ccc(OC)c(NCC(=O)O)c2)c(OC)c1 [Rigosertib] | 17.6 | 16.2
CC(O)(CS(=O)(=O)c1ccc(F)cc1)C(=O)Nc1ccc(C#N)c(C(F)(F)F)c1 (stereo unspecified) [Bicalutamide] | 2.3 | 2.3
CC[C@H](C)C(=O)O[C@H]1C[C@H](O)C=C2C=C[C@H](C)[C@H](CC[C@@H](O)C[C@@H](O)CC(=O)O)[C@H]21 [Pravastatin] | 0 | 0.3
CO[C@@H](C(=O)N1Cc2[nH]nc(NC(=O)c3ccc(N4CCN(C)CC4)cc3)c2C1)c1ccccc1 [Danusertib] | 0.3 | 0
Cc1[nH]c2ccccc2c1CCNCc1ccc(/C=C/C(=O)NO)cc1 [Panobinostat] | 22.2 | 22.4
CN(C(=O)c1ccc(F)cc1C(F)(F)F)C1CCN(c2nnc(-c3ccnn3C)c3ccccc23)CC1 [Taladegib] | 1.6 | 1.1
COC[C@H](NC(=O)c1cnc(C)s1)C(=O)N[C@@H](COC)C(=O)N[C@@H](Cc1ccccc1)C(=O)[C@@]1(C)CO1 [Oprozomib] | 14.8 | 12.3
COc1cc(OC)cc(N(CCNC(C)C)c2ccc3ncc(-c4cnn(C)c4)nc3c2)c1 [Erdafitinib] | 4.3 | 0.2
CCN1C(=O)CNc2ncc(-c3ccc(-c4nc[nH]n4)nc3C)nc21 [CC-115] | 12.2 | 12.5
O[C@H]1CC[C@H](Nc2ncc3nc(Nc4c(F)cc(F)cc4F)n([C@H]4CCOC4)c3n2)CC1 [Tanzisertib] | 0 | 0
O=C(/C=C\n1cnc(-c2cc(C(F)(F)F)cc(C(F)(F)F)c2)n1)NNc1ccccn1 [Verdinexor] | 4.7 | 4.9
Cn1cncc1[C@@](N)(c1ccc(Cl)cc1)c1ccc2c(c1)c(-c1cccc(Cl)c1)cc(=O)n2C [Tipifarnib] | 8.3 | 4.1
CCC1=C[C@@H]2CN(C1)Cc1c([nH]c3ccccc13)[C@@](C(=O)OC)(c1cc3c(cc1OC)N(C)[C@H]1[C@@](O)(C(=O)OC)[C@H](OC(C)=O)[C@]4(CC)C=CCN5CC[C@]31[C@@H]54)C2 [Vinorelbine] | 23.2 | 19
COc1cccc2c1C(=O)c1c(O)c3c(c(O)c1C2=O)C[C@@](O)(C(C)=O)C[C@@H]3O[C@H]1C[C@H](N)[C@H](O)[C@H](C)O1 [Daunorubicin] | 7.4 | 5.4
CC1(C)OCCn2c1nc1c(N3CCOCC3)nc(-c3cnc(N)nc3)nc12 [GDC-0084] | 16.4 | 17.4
CO[C@@H](C)Cn1c(=O)n(C)c2cnc3ccc(-c4cncc(C(C)(C)O)c4)cc3c21 | 15.3 | 15.3
CC[C@]1(O)C[C@H]2CN(CCc3c([nH]c4ccccc34)[C@@](C(=O)OC)(c3cc4c(cc3OC)N(C=O)[C@H]3[C@@](O)(C(=O)OC)[C@H](OC(C)=O)[C@]5(CC)C=CCN6CC[C@]43[C@@H]65)C2)C1 [Vincristine] | 14.1 | 8.1
O=C(/C=C\n1cnc(-c2cc(C(F)(F)F)cc(C(F)(F)F)c2)n1)NNc1cnccn1 [Selinexor] | 9.6 | 9.5
CS(=O)(=O)c1ccc(-c2cnc(N)c(C(=O)Nc3ccccc3)n2)cc1 [VE-821] | 2 | 4.7

Compound | drug sensitivity score [1] | drug sensitivity score [2]
O=C1Cc2cc(C(=O)NC3C[C@H]4CC[C@@H](C3)N4S(=O)(=O)CC3CCN(CCCC(F)(F)F)CC3)c(Cl)cc2N1 (stereo partly specified) | 0 | 0
O=C(c1cc(Cc2n[nH]c(=O)c3ccccc23)ccc1F)N1CCN(C(=O)C2CC2)CC1 [Olaparib] | 1.7 | 0.5
COc1cc2c(cc1OCCCN1CCCC1)N=C(N)C21CCC1 [A-366] | 0 | 0
COc1cc(N2CCN(C)CC2)ccc1Nc1nccc(-c2cn(C)c3cnccc23)n1 [AZ191] | 1.3 | 1.2
CCS(=O)(=O)N1CCN(c2ccc(Nc3ncc(C(N)=O)c(NC4CC4)n3)cc2)CC1 [Cerdulatinib] | 4.4 | 0.3
Cc1cccc(-c2nn3c(c2-c2ccnc4ccc(C(N)=O)cc24)CCC3)n1 [Galunisertib] | 0 | 0
CN1CCN(c2ccc(C(=O)Nc3n[nH]c4ccc(Cc5cc(F)cc(F)c5)cc34)c(NC3CCOCC3)c2)CC1 [Entrectinib] | 0 | 0
CC1(C)CCC(c2ccc(Cl)cc2)=C(CN2CCN(c3ccc(C(=O)NS(=O)(=O)c4ccc(N[C@H](CCN5CCOCC5)CSc5ccccc5)c(S(=O)(=O)C(F)(F)F)c4)cc3)CC2)C1 [Navitoclax] | 0.3 | 2.4
CC[C@@H]1C(=O)N(C)c2cnc(Nc3ccc(C(=O)N[C@H]4CC[C@H](N5CCN(CC6CC6)CC5)CC4)cc3OC)nc2N1C(C)C [Volasertib] | 10.5 | 7.8
Cc1ccc(C(=O)Nc2cccc(C(F)(F)F)c2)cc1Nc1nc(-c2cccnc2)nc2c1cnn2C [NVP-BHG712] | 1.9 | 1.2
Nc1nc2[nH]cnc2c(=S)[nH]1 [Thioguanine] | 10.4 | 5.9
CN[C@@H](C)C(=O)N[C@H](C(=O)N1CCC[C@H]1c1nc(C(=O)c2ccc(F)cc2)cs1)C1CCCCC1 [NVP-LCL161] | 8 | 8.1
CCOc1ccn(-c2ccc(F)cc2)c(=O)c1C(=O)Nc1ccc(Oc2ccnc(N)c2Cl)c(F)c1 | 0 | 0
C=CC[C@@H]1/C=C(\C)C[C@H](C)C[C@H](OC)[C@H]2O[C@@](O)(C(=O)C(=O)N3CCCC[C@H]3C(=O)O[C@H](/C(C)=C/[C@@H]3CC[C@@H](O)[C@H](OC)C3)[C@H](C)[C@@H](O)CC1=O)[C@H](C)C[C@@H]2OC [Tacrolimus] | 2.2 | 0.8
CCS(=O)(=O)N1CC(CC#N)(n2cc(-c3ncnc4[nH]ccc34)cn2)C1 [Baricitinib] | 0 | 0
Cc1cc(Nc2cc(N3CCN(C)CC3)nc(Sc3ccc(NC(=O)C4CC4)cc3)n2)n[nH]1 [Tozasertib] | 2.5 | 0
CN1CCN(C2CCN(C(=O)Nc3cc(Oc4ccc(NC(=O)C5(C(=O)Nc6ccc(F)cc6)CC5)c(F)c4)ccn3)CC2)CC1 [Golvatinib] | 0.3 | 0
C=CCN(/C=C1/C(=O)O[C@H](COC)[C@@]2(C)C1=C(O)C(=O)C1=C2[C@H](OC(C)=O)C[C@]2(C)C(=O)CC[C@@H]12)CC=C [Sonolisib] | 0 | 0
Cc1cc(Nc2nc(N[C@@H](C)c3ncc(F)cn3)ncc2Cl)[nH]n1 [AZD1480] | 0.3 | 0
Cc1ncc(-c2ccnc(Nc3ccc(S(C)(=O)=O)cc3)n2)n1C(C)C [AZD-5438] | 6.1 | 7.9
COc1cc(N2CCC(N3CCN(C)CC3)CC2)ccc1Nc1ncc(Cl)c(Nc2ccccc2P(C)(C)=O)n1 [Brigatinib] | 2.4 | 2
O=C(NC1CCNCC1)c1n[nH]cc1NC(=O)c1c(Cl)cccc1Cl [AT7519] | 13.2 | 14.6
CN(Cc1cnc2nc(N)nc(N)c2n1)c1ccc(C(=O)N[C@@H](CCC(=O)O)C(=O)O)cc1 [Methotrexate] | 1 | 0
COC(=O)c1ccc([C@H]2c3[nH]c4ccccc4c3C[C@H](C(=O)OC)N2C(=O)CCl)cc1 [RSL3] | 0.6 | 0.8
CN1CCN(c2ccc3nc(-c4c(N)c5c(F)cccc5[nH]c4=O)[nH]c3c2)CC1 [Dovitinib] | 0 | 0
CNC(=O)c1cc(Oc2ccc(NC(=O)Nc3ccc(Cl)c(C(F)(F)F)c3)c(F)c2)ccn1 [Regorafenib] | 3 | 1.5
